Test results as given in publication PMC8269107, “Lipidation of Temporin-1CEb Derivatives as a Tool for Activity Improvement, Pros and Cons of the Approach” (International Journal of Molecular Sciences, 2021).
Converted amounts (≈) assume the structure as drawn. Where a SMILES comes first, the peptide text is derived from it. [ ]: non-standard residue; d: D form. The star is where a group is joined. Palmitoyl = CCCCCCCCCCCCCCCC(=O)*; Lauroyl = CCCCCCCCCCCC(=O)*; Pentanoyl = CCCCC(=O)*; AEEA = NCCOCCOCC(=O)O; Ahx = NCCCCCC(=O)O; βAla = NCCC(=O)O

Key:
C.glabrata CCM 8270 = test: MIC, broth microdilution; assay type: cell-based, Candida glabrata; conditions: C.glabrata CCM 8270, 24 h
Text: (§1) Escherichia coli (PCM 2057 = ATCC 25922), Staphylococcus aureus (PCM 2054 = ATCC 25923), Staphylococcus epidermidis (PCM 2118 = ATCC 14990), Bacillus subtilis (PCM 2224 = ATCC 9799), Bacillus cereus (PCM 482 = ATCC 10702) and Pseudomonas aeruginosa (PCM 499 = ATCC 10145) were obtained from the Polish Collection of Microorganisms. Fungi strains Candida albicans (CCM 8186 = CNTC 49/64), Candida glabrata (CCM 8270 = ATCC 90030), Candida parapsilosis (CCM 8260 = ATCC 22019) and Candida krusei (CCM 8271 = ATCC 6258) were acquired from the Czech Collection of Microorganisms. S. aureus USA300 (wild type strain), the reference strain of Klebsiella pneumoniae (ATCC 13883) and clinical isolates of Pseudomonas aeruginosa (PA1, PA2) collected from nonrelated patients admitted to the Stefan Zeromski Specialist Municipal Hospital in Krakow (Poland) were kindly provided by the research group of the Department of Microbiology, Faculty of Biochemistry, Biophysics and Biotechnology, Jagiellonian University, Krakow, Poland.
(§2) Luria-Bertani broth (LB) and Sabouraud Dextrose broth (SB) (Biocorp, Poland) were used for cultivation of bacteria and fungi strains, respectively. The antimicrobial activity of the peptides were analyzed through determination of MIC (minimal inhibitory concentration) parameters according to Clinical and Laboratory Standards (CLSI) guidelines developed for aerobic bacteria and yeasts, respectively. Mueller-Hinton broth (MHB) was used as the working medium for all bacterial strains, while in the case of fungi, RPMI-1640 (with L-glutamine, without sodium bicarbonate) growth medium buffered with MOPS (morpholinepropanesulfonic acid) and supplemented with 2% glucose was used. Inoculum was prepared from freshly grown cultures of microorganisms at their exponential phase of growth. […] Plates were then incubated for 24 h at 37 °C in the case of bacteria and at 35 °C in the case of fungi. After that time, absorbance was read at 590 nm with a Perkin Elmer plate reader. Cultures without peptide were treated as positive control, while uninoculated media were defined as negative control. All measurements were run at least in triplicate.

B. subtilis PCM 2224 = test: MIC, broth microdilution; assay type: cell-based, Bacillus subtilis; conditions: B. subtilis PCM 2224, 24 h
Text: as §1, §2

S. epidermidis PCM 2118 = test: MIC, broth microdilution; assay type: cell-based, Staphylococcus epidermidis; conditions: S. epidermidis PCM 2118, 24 h
Text: as §1, §2

E. coli PCM 2057 = test: MIC, broth microdilution; assay type: cell-based, Escherichia coli; conditions: E. coli PCM 2057, 24 h
Text: as §1, §2

P. aeruginosa PCM 499 = test: MIC, broth microdilution; assay type: cell-based, Pseudomonas aeruginosa; conditions: P. aeruginosa PCM 499, 24 h
Text: as §1, §2

C.albicans CCM 8186 = test: MIC, broth microdilution; assay type: cell-based, Candida albicans; conditions: C.albicans CCM 8186, 24 h
Text: as §1, §2

C.parapsilosis CCM 8260 = test: MIC, broth microdilution; assay type: cell-based, Candida parapsilosis; conditions: C.parapsilosis CCM 8260, 24 h
Text: as §1, §2

S. aureus PCM 2054 = test: MIC, broth microdilution; assay type: cell-based, Staphylococcus aureus; conditions: S. aureus PCM 2054, standard Mueller-Hinton broth, 24 h
Text: as §1, §2

B. cereus PCM 482 = test: MIC, broth microdilution; assay type: cell-based, Bacillus cereus; conditions: B. cereus PCM 482, 24 h
Text: as §1, §2

[1] = tested on: S. aureus (PCM 2054) biofilm; test: Biofilm inhibition assay (MTT); assay type: cell-based, Staphylococcus aureus; conditions: S. aureus biofilm development, 24 h post-inoculation
Experimental: (§3) In the case of bacteria, an overnight culture of S. aureus in Tryptic Soy Broth (TSB) supplemented with 2% glucose (TSB/+G) was used to prepare inoculum for the experiments. Briefly, 5 mL of 24 h culture was centrifuged at 5000× g, washed with sterile PBS and suspended in a fresh 2 × concentrated TSB/+G. In the case of yeasts, the overnight culture of C. albicans in Sabouraud dextrose broth (SB) was used for inoculum preparation. Similar to above, 5 mL of 24 h culture was centrifuged, washed with PBS and then suspended in sterile 2 × concentrated RPMI-1640 medium (with L-glutamine, without sodium bicarbonate) supplemented with 2% glucose (RPMI-1640/+G). In both cases, the cell concentration of the inoculum was about 1 × 10^7 cells per ml.
(§4) For the determination of the inhibitory concentration that reduced biofilm development by 50% (BIC50^, expressed in µg/mL), 100 µL inoculum in 2 × concentrated RPMI-1640/+G medium (in the case of C. albicans) or 2 x concentrated TSB/+G broth (in the case of S. aureus) was transferred to each well of 96-well plates containing 100 µL of serially diluted in water tested compounds. The final concentrations of the compounds were the same as those used in MIC determination studies. The 96-well plates were then incubated for 24 h at 37 °C and 35 °C in the case of bacteria and fungi, respectively. Viability of the microorganisms in the presence of the tested compounds was analyzed by means of MTT assay.
(§5) The reduction in biofilm viability was analyzed by means of MTT assay. Briefly, 20 μL of MTT solution (5 mg/mL in PBS) was added to prewashed wells with exchanged medium (180 μL of fresh medium) wells containing bacterial/yeast biofilms. Plates were then incubated in the dark for the next 3 h at 37 °C. After that time, the medium was replaced with 6 mM HCl in isopropanol and, when the reduced MTT was fully dissolved, the plates were read at 570 nm. Activity against fully developed 24 h old biofilm was described as biofilm eradication concentration (BEC50 expressed in µg/mL), which corresponded to the concentration of the compound able to reduce 50% of biofilm viability compared with the growth control.

[2] = tested on: C. albicans (CCM 8186) biofilm; test: Biofilm inhibition assay (MTT); assay type: cell-based, Candida albicans; conditions: C. albicans biofilm development, 24 h post-inoculation
Experimental: as §3, §4, §5

K.pneumoniae ATCC 13883 = assay type: cell-based, Klebsiella pneumoniae; conditions: K.pneumoniae ATCC 13883
Text: as §1, §2

P. aeruginosa PA2 = assay type: cell-based, Pseudomonas aeruginosa; conditions: P. aeruginosa PA2 clinical isolate
Text: as §1, §2

P. aeruginosa PA1 = assay type: cell-based, Pseudomonas aeruginosa; conditions: P. aeruginosa PA1 clinical isolate
Text: as §1, §2

Compound	MIC100 (C.glabrata CCM 8270) [µg/mL]	MIC100 (B. subtilis PCM 2224) [µg/mL]	MIC100 (S. epidermidis PCM 2118) [µg/mL]	MIC100 (E. coli PCM 2057) [µg/mL]	MIC100 (P. aeruginosa PCM 499) [µg/mL]	MIC100 (C.albicans CCM 8186) [µg/mL]	MIC100 (C.parapsilosis CCM 8260) [µg/mL]	MIC100 (S. aureus PCM 2054) [µg/mL]	MIC100 (B. cereus PCM 482) [µg/mL]	BIC50 [1] [µg/mL]	BIC50 [2] [µg/mL]	MIC100 (K.pneumoniae ATCC 13883) [µg/mL]	MIC100 (P. aeruginosa PA2) [µg/mL]	MIC100 (P. aeruginosa PA1) [µg/mL]
CC[C@H](C)[C@H](NC(=O)COCCOCCNC(=O)[C@H](Cc1c[nH]cn1)NC(=O)CCNC(=O)CCCCCN)C(=O)N[C@@H](CCCCN)C(=O)N[C@@H](CCCCN)C(=O)N[C@H](C(=O)N[C@@H](CC(C)C)C(=O)N[C@@H](CO)C(=O)N[C@@H](CCCCN)C(=O)N[C@H](C(=O)N[C@@H](CCCCN)C(=O)N[C@@H](CCCCN)C(=O)N[C@@H](CC(C)C)C(=O)N[C@@H](CC(C)C)C(N)=O)[C@@H](C)CC)[C@@H](C)CC [AHX-CAR-PEG-DK5] (H-[Ahx][βAla]H[AEEA]IKKILSKIKKLL-NH2)	>50	6.25 (≈ 3.31 µM)	6.25 (≈ 3.31 µM)	>50	>50	>50	50 (≈ 26.4 µM)	>50	>50	>50	>50			
CC[C@H](C)[C@H](NC(=O)CCCCCN)C(=O)N[C@@H](CCCCN)C(=O)N[C@@H](CCCCN)C(=O)N[C@H](C(=O)N[C@@H](CC(C)C)C(=O)N[C@@H](CO)C(=O)N[C@@H](CCCCN)C(=O)N[C@H](C(=O)N[C@@H](CCCCN)C(=O)N[C@@H](CCCCN)C(=O)N[C@@H](CC(C)C)C(=O)N[C@@H](CC(C)C)C(N)=O)[C@@H](C)CC)[C@@H](C)CC [AHX-DK5] (H-[Ahx]IKKILSKIKKLL-NH2)	12.5 (≈ 8.13 µM)	0.78 (≈ 0.507 µM)	0.78 (≈ 0.507 µM)	12.5 (≈ 8.13 µM)	25 (≈ 16.3 µM)	12.5 (≈ 8.13 µM)	12.5 (≈ 8.13 µM)	>50	50 (≈ 32.5 µM)	6.25	25			
CCCCC(=O)NCCC(=O)N[C@@H](Cc1c[nH]cn1)C(=O)NCCOCCOCC(=O)N[C@H](C(=O)N[C@@H](CCCCN)C(=O)N[C@@H](CCCCN)C(=O)N[C@H](C(=O)N[C@@H](CC(C)C)C(=O)N[C@@H](CO)C(=O)N[C@@H](CCCCN)C(=O)N[C@H](C(=O)N[C@@H](CCCCN)C(=O)N[C@@H](CCCCN)C(=O)N[C@@H](CC(C)C)C(=O)N[C@@H](CC(C)C)C(N)=O)[C@@H](C)CC)[C@@H](C)CC)[C@@H](C)CC [C5-CAR-PEG-DK5] ({Pentanoyl-βAla}-H[AEEA]IKKILSKIKKLL-NH2)	>50	6.25 (≈ 3.36 µM)	6.25 (≈ 3.36 µM)	>50	>50	>50	50 (≈ 26.9 µM)	>50	>50	>50	>50			
CCCCCCCCCCCC(=O)NCCC(=O)N[C@@H](Cc1c[nH]cn1)C(=O)NCCOCCOCC(=O)N[C@H](C(=O)N[C@@H](CCCCN)C(=O)N[C@@H](CCCCN)C(=O)N[C@H](C(=O)N[C@@H](CC(C)C)C(=O)N[C@@H](CO)C(=O)N[C@@H](CCCCN)C(=O)N[C@H](C(=O)N[C@@H](CCCCN)C(=O)N[C@@H](CCCCN)C(=O)N[C@@H](CC(C)C)C(=O)N[C@@H](CC(C)C)C(N)=O)[C@@H](C)CC)[C@@H](C)CC)[C@@H](C)CC [C12-CAR-PEG-DK5] ({Lauroyl-βAla}-H[AEEA]IKKILSKIKKLL-NH2)	12.5 (≈ 6.38 µM)	3.13 (≈ 1.6 µM)	0.78 (≈ 0.398 µM)	3.13 (≈ 1.6 µM)	12.5 (≈ 6.38 µM)	12.5 (≈ 6.38 µM)	3.13 (≈ 1.6 µM)	6.25 (≈ 3.19 µM)	>50			12.5 (≈ 6.38 µM)	25 (≈ 12.8 µM)	12.5 (≈ 6.38 µM)
CCCCCCCCCCCCCCCC(=O)NCCC(=O)N[C@@H](Cc1c[nH]cn1)C(=O)NCCOCCOCC(=O)N[C@H](C(=O)N[C@@H](CCCCN)C(=O)N[C@@H](CCCCN)C(=O)N[C@H](C(=O)N[C@@H](CC(C)C)C(=O)N[C@@H](CO)C(=O)N[C@@H](CCCCN)C(=O)N[C@H](C(=O)N[C@@H](CCCCN)C(=O)N[C@@H](CCCCN)C(=O)N[C@@H](CC(C)C)C(=O)N[C@@H](CC(C)C)C(N)=O)[C@@H](C)CC)[C@@H](C)CC)[C@@H](C)CC [C16-CAR-PEG-DK5] ({Palmitoyl-βAla}-H[AEEA]IKKILSKIKKLL-NH2)	>50	12.5 (≈ 6.2 µM)	25 (≈ 12.4 µM)	>50	>50	25 (≈ 12.4 µM)	6.25 (≈ 3.1 µM)	>50	>50	10	25			
CCCCCCCCCCCCCCCC(=O)N[C@H](C(=O)N[C@@H](CCCCN)C(=O)N[C@@H](CCCCN)C(=O)N[C@H](C(=O)N[C@@H](CC(C)C)C(=O)N[C@@H](CO)C(=O)N[C@@H](CCCCN)C(=O)N[C@H](C(=O)N[C@@H](CCCCN)C(=O)N[C@@H](CCCCN)C(=O)N[C@@H](CC(C)C)C(=O)N[C@@H](CC(C)C)C(N)=O)[C@@H](C)CC)[C@@H](C)CC)[C@@H](C)CC [Compound C16-DK5] (Palmitoyl-IKKILSKIKKLL-NH2)	>50	3.13 (≈ 1.88 µM)	25 (≈ 15 µM)	>50	>50	>50		>50	>50	6.25	>50			
